Results published in patent publication US8889704B2 (Array BioPharma Inc., priority 2011, dated 2014).
Structures can show the parent of a compound that is named as a salt.

Legend:
Assay type in all cases: biochemical
PIM-1 = PIM-1 (Homo sapiens, UniProt P11309); experiment: Enzyme PIM-1 Assay ([33P]ATP incorporation into PIM2tide, filter plate); conditions: averaged IC50; 35 μM ATP, 7.5 μM PIM2tide, 0.25 nM PIM-1, 60 min at 22° C.
Procedure, shortened: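 Radiometric assay: 0.25 nM PIM-1 phosphorylates 7.5 μM PIM2tide with 35 μM [γ-33P]ATP in 20 mM MOPS pH 7.4, 10 mM MgCl2, 1 mM DTT, 0.005% Tween-20, 60 min at 22 °C. Product captured on P81 filters, scintillation counted; 10-point 3-fold curve from 10 μM top, 2% DMSO, IC50 by 4-parameter logistic fit of POC.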

[1] = target: T1, GST-tagged recombinant full-length human Pim-2 (Homo sapiens, UniProt Q9P1W9); experiment: PIM-2 Assay (as Example A); conditions: averaged IC50; 4 μM ATP, 1.0 μM PIM2tide, 1.5 nM Pim-2
T1 construct: GST-tagged recombinant full-length human Pim-2; GST
Procedure, shortened: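 Radiometric filter-binding assay: GST-tagged full-length human Pim-2 (1.5 nM) phosphorylates 1.0 μM PIM2tide with 4 μM [γ-33P]ATP for 60 min at 22 °C in pH 7.4 MOPS buffer, 2% DMSO. 10-point 3-fold dilutions from 10 μM top dose; IC50 from 4-parameter fit of percent of control.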

recombinant rat PIM-3 = recombinant rat PIM-3 (Rattus norvegicus, UniProt O70444); experiment: PIM-3 Assay (as Example A); conditions: averaged IC50; 30 μM ATP, 3.75 μM PIM2tide, 0.5 nM PIM-3
Procedure, shortened: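 Recombinant rat PIM-3 (0.5 nM) with 3.75 μM PIM2tide and 30 μM [γ-33P]ATP in MOPS pH 7.4 buffer, 60 min at 22 °C; labelled peptide captured on phosphocellulose filters and counted by scintillation. 10-point curve (top dose 10 μM, 2% DMSO); IC50 from 4-parameter fit of percent of control.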

Sequence of PIM-1 (P11309 whole entry, species assumed): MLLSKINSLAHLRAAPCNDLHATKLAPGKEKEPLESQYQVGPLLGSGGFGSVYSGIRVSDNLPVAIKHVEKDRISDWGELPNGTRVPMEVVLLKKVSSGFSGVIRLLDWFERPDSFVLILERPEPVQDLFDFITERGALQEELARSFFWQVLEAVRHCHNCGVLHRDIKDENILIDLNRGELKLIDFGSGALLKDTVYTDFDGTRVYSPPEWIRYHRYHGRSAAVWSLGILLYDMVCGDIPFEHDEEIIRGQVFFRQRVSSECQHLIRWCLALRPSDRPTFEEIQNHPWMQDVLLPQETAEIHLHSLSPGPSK
T1 sequence (Q9P1W9 whole entry): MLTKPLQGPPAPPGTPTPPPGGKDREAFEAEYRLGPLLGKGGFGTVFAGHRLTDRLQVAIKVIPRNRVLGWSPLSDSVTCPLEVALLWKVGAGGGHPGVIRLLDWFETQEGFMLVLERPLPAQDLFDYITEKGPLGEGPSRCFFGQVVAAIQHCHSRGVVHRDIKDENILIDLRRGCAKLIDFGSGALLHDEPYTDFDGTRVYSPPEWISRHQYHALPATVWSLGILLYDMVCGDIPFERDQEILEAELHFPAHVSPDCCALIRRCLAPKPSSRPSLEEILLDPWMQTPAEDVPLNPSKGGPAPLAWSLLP

| Structure (SMILES) | IC50 (PIM-1) [nM] | IC50 [1] [nM] | IC50 (recombinant rat PIM-3) [nM] |
| --- | --- | --- | --- |
| CC1Cc2c(ccc3ccc(-c4nnc5ccc([C@@H](N6CC[C@H](N)C6)C(F)(F)F)cn45)nc23)O1 (stereo partly drawn) [Example 144, (3S)-1-((1R)-2,2,2-trifluoro-1-(3-(8-methyl-8,9-dihydrofuro[2,3-h]quinolin-2-yl)-[1,2,4]triazolo[4,3-a]pyridin-6-yl)ethyl)pyrrolidin-3-amine dihydrochloride] | 0.95 | 48 | 1 |
| CC(C)(C)c1cccc2ccc(-c3nnc4ccc([C@@H](N5C[C@@H](N)[C@H](O)C5)C(F)(F)F)cn34)nc12 [Example 145, (3R,4R)-4-amino-1-((R)-1-(3-(8-tert-butylquinolin-2-yl)-[1,2,4]triazolo[4,3-a]pyridin-6-yl)-2,2,2-trifluoroethyl)pyrrolidin-3-ol dihydrochloride] | 0.25 | 30 | 0.7 |
| CC(C)Oc1cccc2ccc(-c3nnc4ccc([C@@H](N5C[C@@H](N)[C@H](O)C5)C(F)(F)F)cn34)nc12 [Example 146, (3R,4R)-4-amino-1-((R)-2,2,2-trifluoro-1-(3-(8-isopropoxyquinolin-2-yl)-[1,2,4]triazolo[4,3-a]pyridin-6-yl)ethyl)pyrrolidin-3-ol dihydrochloride] | 0.13 | 34 | 0.3 |
| CC(C)Oc1cc(F)cc2ccc(-c3nnc4ccc([C@@H](N5C[C@@H](N)[C@H](O)C5)C(F)(F)F)cn34)nc12 [Example 147, (3R,4R)-4-amino-1-((R)-2,2,2-trifluoro-1-(3-(6-fluoro-8-isopropoxyquinolin-2-yl)-[1,2,4]triazolo[4,3-a]pyridin-6-yl)ethyl)pyrrolidin-3-ol dihydrochloride] | 0.11 | 36 | 0.3 |
| COCCOc1ccc2ccc(-c3nnc4ccc([C@@H](N5CC[C@H](N)C5)C(F)(F)F)cn34)nc2c1 [Example 148, (S)-1-((R)-2,2,2-trifluoro-1-(3-(7-(2-methoxyethoxy)quinolin-2-yl)-[1,2,4]triazolo[4,3-a]pyridin-6-yl)ethyl)pyrrolidin-3-amine dihydrochloride] | 0.34 | > 100 | 1.2 |
| COC[C@@H](C)Oc1ccc2ccc(-c3nnc4ccc([C@@H](N5CC[C@H](N)C5)C(F)(F)F)cn34)nc2c1 [Example 149, (S)-1-((R)-2,2,2-trifluoro-1-(3-(7-((R)-1-methoxypropan-2-yloxy)quinolin-2-yl)-[1,2,4]triazolo[4,3-a]pyridin-6-yl)ethyl)pyrrolidin-3-amine dihydrochloride] | 0.17 | > 100 | 0.7 |
| COC[C@H](C)Oc1ccc2ccc(-c3nnc4ccc([C@@H](N5CC[C@H](N)C5)C(F)(F)F)cn34)nc2c1 [Example 150, (S)-1-((R)-2,2,2-trifluoro-1-(3-(7-((S)-1-methoxypropan-2-yloxy)quinolin-2-yl)-[1,2,4]triazolo[4,3-a]pyridin-6-yl)ethyl)pyrrolidin-3-amine dihydrochloride] | 0.41 | > 100 | 3.5 |
| COCCOc1ccc2ccc(-c3nnc4ccc([C@@H](N5CC[C@H](N)C5)C(F)(F)F)cn34)nc2c1C1CC1 [Example 152, (S)-1-((R)-1-(3-(8-cyclopropyl-7-(2-methoxyethoxy)quinolin-2-yl)-[1,2,4]triazolo[4,3-a]pyridin-6-yl)-2,2,2-trifluoroethyl)pyrrolidin-3-amine dihydrochloride] | 0.25 | 42 | 0.3 |
| COC[C@@H](C)Oc1cc(F)cc2ccc(-c3nnc4ccc([C@@H](N5CC[C@H](N)C5)C(F)(F)F)cn34)nc12 [Example 159, (S)-1-((R)-2,2,2-trifluoro-1-(3-(6-fluoro-8-((R)-1-methoxypropan-2-yloxy)quinolin-2-yl)-[1,2,4]triazolo[4,3-a]pyridin-6-yl)ethyl)pyrrolidin-3-amine dihydrochloride] | 0.14 | 48 | 0.5 |
| N[C@H]1CCN([C@H](c2ccc3nnc(-c4ccc5cccc(C(F)(F)F)c5n4)n3c2)C(F)(F)F)C1 [Example 161, (S)-1-((R)-2,2,2-trifluoro-1-(3-(8-(trifluoromethyl)quinolin-2-yl)-[1,2,4]triazolo[4,3-a]pyridin-6-yl)ethyl)pyrrolidin-3-amine dihydrochloride] | 0.23 | > 100 | 1.9 |

Continued, values first:

| IC50 (PIM-1) [nM] | IC50 [1] [nM] | IC50 (recombinant rat PIM-3) [nM] | Structure (SMILES) |
| --- | --- | --- | --- |
| 0.09 | 38 | 0.5 | COc1ccc2ccc(-c3nnc4ccc([C@@H](N5CC[C@H](N)C5)C(F)(F)F)cn34)nc2c1C1CC1 [Example 143, (S)-1-((R)-1-(3-(8-cyclopropyl-7-methoxyquinolin-2-yl)-[1,2,4]triazolo[4,3-a]pyridin-6-yl)-2,2,2-trifluoroethyl)pyrrolidin-3-amine dihydrochloride] |
| 0.49 | 85 | 1 | CC(C)Oc1ccc2ccc(-c3nnc4ccc([C@@H](N5CC[C@H](N)C5)C(F)(F)F)cn34)nc2c1C1CC1 [Example 151, (S)-1-((R)-1-(3-(8-cyclopropyl-7-isopropoxyquinolin-2-yl)-[1,2,4]triazolo[4,3-a]pyridin-6-yl)-2,2,2-trifluoroethyl)pyrrolidin-3-amine dihydrochloride] |
| 0.19 | > 100 | 1.6 | COCCc1cc2nc(-c3nnc4ccc([C@@H](N5CC[C@H](N)C5)C(F)(F)F)cn34)ccc2cc1F [Example 153, (S)-1-((R)-2,2,2-trifluoro-1-(3-(6-fluoro-7-(2-methoxyethyl)quinolin-2-yl)-[1,2,4]triazolo[4,3-a]pyridin-6-yl)ethyl)pyrrolidin-3-amine dihydrochloride] |
| 0.15 | 38 | 0.4 | N[C@H]1CCN([C@H](c2ccc3nnc(-c4ccc5cc(F)c(OC6CCOCC6)cc5n4)n3c2)C(F)(F)F)C1 [Example 156, (S)-1-((R)-2,2,2-trifluoro-1-(3-(6-fluoro-7-(tetrahydro-2H-pyran-4-yloxy)quinolin-2-yl)-[1,2,4]triazolo[4,3-a]pyridin-6-yl)ethyl)pyrrolidin-3-amine hydrochloride] |
| 3.44 | 239 | 12 | N[C@H]1CCN([C@H](c2ccc3nnc(-c4ccc5cc(F)c(O)cc5n4)n3c2)C(F)(F)F)C1 [Example 157, 2-(6-((R)-1-((S)-3-aminopyrrolidin-1-yl)-2,2,2-trifluoroethyl)-[1,2,4]triazolo[4,3-a]pyridin-3-yl)-6-fluoroquinolin-7-ol hydrochloride] |
| 0.16 | 41 | 1.1 | N[C@H]1CCN([C@H](c2ccc3nnc(-c4ccc5cc(F)cc(OCC6CC6)c5n4)n3c2)C(F)(F)F)C1 [Example 158, (S)-1-((R)-1-(3-(8-(cyclopropylmethoxy)-6-fluoroquinolin-2-yl)-[1,2,4]triazolo[4,3-a]pyridin-6-yl)-2,2,2-trifluoroethyl)pyrrolidin-3-amine hydrochloride] |
| 0.16 | 46 | 0.4 | COC[C@@H](C)Oc1cc2nc(-c3nnc4ccc([C@@H](N5CC[C@H](N)C5)C(F)(F)F)cn34)ccc2cc1F [Example 160, (S)-1-((R)-2,2,2-trifluoro-1-(3-(6-fluoro-7-((R)-1-methoxypropan-2-yloxy)quinolin-2-yl)-[1,2,4]triazolo[4,3-a]pyridin-6-yl)ethyl)pyrrolidin-3-amine dihydrochloride] |
| 1.24 | > 100 | 35 | COc1cc2nc(-c3nnc4ccc([C@@H](N5CC(F)[C@H](N)C5)C(F)(F)F)cn34)ccc2cc1F (stereo partly drawn) [Example 162, (3R)-4-fluoro-1-((R)-2,2,2-trifluoro-1-(3-(6-fluoro-7-methoxyquinolin-2-yl)-[1,2,4]triazolo[4,3-a]pyridin-6-yl)ethyl)pyrrolidin-3-amine dihydrochloride] |
| 0.3 | > 100 | 10 | N[C@H]1CCN([C@H](c2ccc3nnc(-c4ccc5cc(F)cc(O)c5n4)n3c2)C(F)(F)F)C1 [Example 163, 2-(6-((R)-1-((S)-3-aminopyrrolidin-1-yl)-2,2,2-trifluoroethyl)-[1,2,4]triazolo[4,3-a]pyridin-3-yl)-6-fluoroquinolin-8-ol hydrochloride] |
| 2.63 | > 100 | 7.3 | N[C@H]1CCN([C@H](c2ccc3nnc(-c4ccc5cc(F)c(C6(CO)CC6)cc5n4)n3c2)C(F)(F)F)C1 [Example 164, (1-(2-(6-((R)-1-((S)-3-aminopyrrolidin-1-yl)-2,2,2-trifluoroethyl)-[1,2,4]triazolo[4,3-a]pyridin-3-yl)-6-fluoroquinolin-7-yl)cyclopropyl)methanol dihydrochloride] |
